Laboratory results taken from patent EP0046712A1, “Fluorinated diaminobutane derivatives” (MERRELL TORAUDE ET COMPAGNIE, priority 1980, dated 1982).
Read-outs that look alike come from different tables or passages of the source.

How the values were obtained:
Type in all cases: in vivo
[1] = target: T1, GABA-T (Mus musculus, UniProt P61922); assay: GABA-T activity in brain of mice after daily i.p. dosing for four days; conditions: ip, four consecutive days, 24 hours after the last dose; for inhibition at 5 mg/kg: daily dose 5 mg/kg i.p.; for inhibition at 10 mg/kg: daily dose 10 mg/kg i.p.
T1 construct: The brains are removed from the dead mice and are divided into two portions by sagittal section; from tissue; host or cells: brain of male albino CD1 mice dosed i.p. for four days
Description: (§1) A group of 10 male albino CDI mice from Charles Riner, France, is given an i.p. injection of the test compound in aqueous solution daily for four consecutive days. Half of the animals are killed by decapitation 24 hours after the last dose of the test compound. The other half of the animals are observed for up to 12 days for toxicity (as indicated by weight loss and deaths). Control animals receive an injection of the vehicle only.
(§2) The brains are removed from the dead mice and are divided into two portions by sagittal section. One half is used for the measurement of GABA-T activity while the other half is used for measuring GABA content. The GABA-T activity is measured using known methods as dessribed by M.Jung et al., J. Neurochem., 28, 717 (1977) and 29, 797 (1977). GABA content is measured by perchloric acid or trichloroacetic acid extracts using an amino acid analyzer equiped with a fluorescene detector.

[2] = tested on: GABA concentration in the brain; assay: GABA content in brain of mice after daily i.p. dosing for four days; conditions: four consecutive days, 24 hours after the last dose
Description: as §1, §2

[3] = Toxicity (weight loss and deaths) in mice after daily i.p. dosing for four days; conditions: four consecutive days, observed for up to 12 days; for Morality (After treatment) / mortality at 288 h: deaths per 5 mice; for mortality at 288 h: mouse, in vivo, ip, read-out: Morality (After treatment) (converted)
Description: as §1

[4] = tested on: clonic seizures induced by an i.v. challenge of (+)-bicuculline; assay: Protection of mice against clonic seizures induced by i.v. (+)-bicuculline; conditions: for ED50: Mus musculus, ip, single dose, protection against bicuculline-induced clonic seizures

T1 sequence (P61922 29-500): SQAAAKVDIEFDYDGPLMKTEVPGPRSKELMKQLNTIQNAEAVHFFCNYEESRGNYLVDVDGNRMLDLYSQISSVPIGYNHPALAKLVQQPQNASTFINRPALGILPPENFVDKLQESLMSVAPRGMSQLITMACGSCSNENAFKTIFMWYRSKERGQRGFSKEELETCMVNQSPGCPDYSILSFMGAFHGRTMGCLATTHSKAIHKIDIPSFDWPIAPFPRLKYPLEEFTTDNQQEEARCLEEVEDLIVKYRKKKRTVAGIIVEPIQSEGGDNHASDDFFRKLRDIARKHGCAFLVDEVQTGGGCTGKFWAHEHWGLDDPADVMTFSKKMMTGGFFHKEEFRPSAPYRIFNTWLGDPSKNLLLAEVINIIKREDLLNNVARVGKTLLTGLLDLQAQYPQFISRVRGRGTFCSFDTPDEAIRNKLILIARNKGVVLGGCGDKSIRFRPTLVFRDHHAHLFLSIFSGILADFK

NCCC(N)CF (stereo not drawn) [MFDB, 1-fluoro-2,4-diaminobutane] showed an inhibition at 5 mg/kg [1] of 39.7%, an inhibition at 10 mg/kg [1] of 49.8% and an inhibition at 25 mg/kg ([1]; daily dose 25 mg/kg i.p.) of 74%. The inhibition at 50 mg/kg ([1]; daily dose 50 mg/kg i.p.) was 79%, the GABA content elevation ([2]; daily dose 5 mg/kg i.p.) was 190% and the GABA content elevation ([2]; daily dose 10 mg/kg i.p.) was 200%. The GABA content elevation ([2]; daily dose 25 mg/kg i.p.) was 470%, the GABA content elevation ([2]; daily dose 50 mg/kg i.p.) was 465% and the “Morality (After treatment)” value ([3]; daily dose 5 mg/kg i.p.) was 0/5. For the same molecule, the “Weight Loss” value ([3]; daily dose 5 mg/kg i.p.) was 0%, the “Morality (After treatment)” value ([3]; daily dose 10 mg/kg i.p.) was 0/5 and the “Weight Loss” value ([3]; daily dose 10 mg/kg i.p.) was 0%. The mortality at 288 h ([3]; daily dose 25 mg/kg i.p.) was 40%, the mortality at 288 h ([3]; daily dose 50 mg/kg i.p.) was 60% and the ED50 [4] was 65 mg/kg. For the same molecule, the “% of Animals Blocked” value ([4]; single dose 42 mg/kg i.p.) was 20%, the “% of Animals Blocked” value ([4]; single dose 51 mg/kg i.p.) was 40% and the “% of Animals Blocked” value ([4]; single dose 59 mg/kg i.p.) was 50%. The “% of Animals Blocked” value ([4]; single dose 68 mg/kg i.p.) was 55%, the “% of Animals Blocked” value ([4]; single dose 84 mg/kg i.p.) was 60% and the “% of Animals Blocked” value ([4]; single dose 100 mg/kg i.p.) was 60%.

Molecule NCCC(N)C(F)F (stereo not drawn) [DFDB, 1,1-difluoro-2,4-diaminobutane] has an inhibition at 2 mg/kg ([1]; daily dose 2 mg/kg i.p.) of 69.5%, an inhibition at 5 mg/kg [1] of 71.4% and an inhibition at 10 mg/kg [1] of 81%. For the same molecule, the inhibition at 20 mg/kg ([1]; daily dose 20 mg/kg i.p.) was 96.7%, the GABA content elevation ([2]; daily dose 5 mg/kg i.p.) was 200% and the GABA content elevation ([2]; daily dose 10 mg/kg i.p.) was 275%. The GABA content elevation ([2]; daily dose 20 mg/kg i.p.) was 465%, the “Morality (After treatment)” value ([3]; daily dose 2 mg/kg i.p.) was 0/5 and the “Weight Loss” value ([3]; daily dose 2 mg/kg i.p.) was 0%. The “Morality (After treatment)” value ([3]; daily dose 5 mg/kg i.p.) was 0/5, the “Weight Loss” value ([3]; daily dose 5 mg/kg i.p.) was 0% and the mortality at 288 h ([3]; daily dose 10 mg/kg i.p.) was 60%. The mortality at 288 h ([3]; daily dose 20 mg/kg i.p.) was 100%, the ED50 [4] was 4.2 mg/kg and the “% of Animals Blocked” value ([4]; single dose 3 mg/kg i.p.) was 20%. For the same molecule, the “% of Animals Blocked” value ([4]; single dose 4 mg/kg i.p.) was 45%, the “% of Animals Blocked” value ([4]; single dose 6 mg/kg i.p.) was 90% and the “% of Animals Blocked” value ([4]; single dose 8 mg/kg i.p.) was 95%.
